Measured values taken from patent US11325899B2, “Benzofurane and benzothiophene derivatives as PGE2 receptor modulators” (IDORSIA PHARMACEUTICALS LTD, priority 2017, dated 2022).

How the values were obtained:
Assay type in all cases: cell-based
[1] = molecular target: T1, PTGER2 (EP2) (Homo sapiens, UniProt P43116); experiment: hEP2 b-arrestin assay (PathHunter HEK 293 PTGER2 b-arrestin cells); details: antagonistic activity, beta-arrestin assay; read-out: hEP2 b-arr IC50
T1 construct: host or cells: HEK 293 (PathHunter PTGER2 b-arrestin cell line)
T1 sequence (P43116 whole entry): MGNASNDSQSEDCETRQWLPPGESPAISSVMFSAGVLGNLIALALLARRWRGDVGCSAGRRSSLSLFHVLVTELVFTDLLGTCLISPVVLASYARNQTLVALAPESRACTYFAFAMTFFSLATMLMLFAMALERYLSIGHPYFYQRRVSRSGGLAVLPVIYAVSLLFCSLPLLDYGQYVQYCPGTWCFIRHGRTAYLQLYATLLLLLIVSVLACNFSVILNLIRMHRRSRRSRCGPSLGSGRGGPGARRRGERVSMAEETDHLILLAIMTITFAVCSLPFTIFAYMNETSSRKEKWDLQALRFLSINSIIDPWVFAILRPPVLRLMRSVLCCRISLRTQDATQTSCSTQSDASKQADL
Protocol: (§1) The antagonistic activities of the compounds of formula (I) on the EP2 and EP4 receptors are determined in accordance with the following experimental method.
(§2) The assay is using the PathHunter™ HEK 293 PTGER2 and PTGER4 b-arrestin cell lines from DiscoverX. The system is based on the Enzyme Fragment Complementation Technology. Two complementing fragments of the b-galactosidase enzyme are expressed within stably transfected cells. The larger portion of b-gal, termed EA for Enzyme Acceptor, is fused to the C-terminus of b-arrestin 2. The smaller fragment, termed ProLink™ tag, is fused to PTGER2 (EP2) or PTRGER4 (EP4) at the C-terminus. Upon activation, b-arrestin is recruited which forces the interaction of ProLink and EA, allowing complementation of the two fragments of b-gal and the formation of a functional enzyme which is capable of hydrolysing the substrate and generating a chemiluminescent signal.
(§3) The HEK 293 PTGER2 b-arrestin cells (DiscoverX 93-021-4C1) are detached from culture dishes with a cell dissociation buffer (Invitrogen, 13151-014), and collected in growing medium (GM: DMEM+Glutamax-I (Invitrogen 32430)/10% FCS, 1% Penicilin/streptomycin). 5000 cells per well of a 384 well plate (white with white bottom Greiner 781080) are seeded in 20 ul per well of GM. Plate is incubated at 37° C., 5% C02 for 24 hours.
(§4) Stock solutions of test compounds are made at a concentration of 10 mM in DMSO, and serially diluted in DMSO to concentrations required for inhibition dose response curves (tested concentration range 10 μM-2 nM or 1 μM-0.2 nM).
PGE2 (Cayman 14010, stock solution: 10 mM in DMSO) is used as agonist at 5 μM final concentration, corresponding to EC80.
Five microliters of diluted compounds are transferred into the assay plate. Plate is pre-incubated 15 minutes at 37° C. Then five microliters of PGE2 (final conc. 5 μM) are transferred into the assay plate. Plate is incubated 120 minutes at 37° C.
(§5) PathHunter Glo Detection Kit components are thawed and mix according to manufacturer's instructions: 1 part Galacton Star Substrate with 5 parts Emerald II™ Solution, and 19 parts of PathHunter Cell Assay Buffer, respectively. Twelve μl of reagent are transferred to the assay plate and incubate for 1 hour at room temperature in the dark. Luminescence counts are read on a BMG Fluostar Optima reader according to manufacturer's instructions.
(§6) For each compound concentration calculate of the percentage of activity compared to DMSO control value as average±STDEV. (each concentration is measured in duplicate)
(§7) IC50 values and curves are generated with XLfit software (IDBS) using Dose-Response One Site model 203. When compounds were measured multiple times, mean values are given.

[2] = molecular target: T2, EP4 receptor (Homo sapiens, UniProt P35408); experiment: hEP4 cAMP assay (BT549 breast cancer cells, HTRF cAMP, PGE2 stimulation); details: antagonistic activity, PGE2 6 nM (EC80)
T2 construct: BT549 breast cancer cells, express high endogenous EP4 levels and very low EP2 levels; host or cells: BT549 breast cancer cells
T2 sequence (P35408 whole entry): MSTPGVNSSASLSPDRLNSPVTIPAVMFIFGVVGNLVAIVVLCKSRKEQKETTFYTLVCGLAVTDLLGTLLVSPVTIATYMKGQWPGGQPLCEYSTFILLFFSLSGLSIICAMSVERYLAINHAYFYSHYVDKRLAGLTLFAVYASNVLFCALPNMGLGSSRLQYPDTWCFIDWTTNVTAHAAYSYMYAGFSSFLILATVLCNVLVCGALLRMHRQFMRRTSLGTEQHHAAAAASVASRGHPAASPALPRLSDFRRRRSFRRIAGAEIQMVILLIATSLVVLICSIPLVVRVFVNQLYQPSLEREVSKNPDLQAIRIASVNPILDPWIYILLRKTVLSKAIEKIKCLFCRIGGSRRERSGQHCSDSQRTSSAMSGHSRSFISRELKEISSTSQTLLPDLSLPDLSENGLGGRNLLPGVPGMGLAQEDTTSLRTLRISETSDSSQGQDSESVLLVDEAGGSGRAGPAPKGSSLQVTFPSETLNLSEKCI
Protocol: (§8) The antagonistic activities of the compounds of formula (I) on the EP2 and EP4 receptors are also determined in accordance with the following experimental method.
(§9) Human tumor cell lines expressing endogenously either EP4 or EP2 are used and cAMP accumulation in cells upon PGE2 stimulation is monitored. SF295 glioblastoma cells express high endogenous EP2 and no EP4, whereas BT549 breast cancer cells, express high endogenous EP4 levels and very low EP2 levels.
(§10) As a detection method for cAMP the HTRF (homogeneous time resolved fluorescence) Cisbio kit (HTRF cAMP dynamic 2 kit 20′000 tests Cisbio Cat. #62AM4PEC) was used, which is based on a competitive immunoassay using a Cryptate-labeled anti-cAMP antibody and d2-labeled cAMP. Native cAMP produced by cells or unlabeled cAMP (for the standard curve) compete with exogenously added d2-labeled cAMP (acceptor) for binding to monoclonal anti-cAMP-Eu3+ Cryptate (donor). A FRET signal (Fluorescence Resonance Energy Transfer) is obtained only if the labeled anti-cAMP antibody binds the d2 labelled cAMP, thus the specific signal (i.e. energy transfer) is inversely proportional to the concentration of cAMP in the standard or sample.
(§11) The BT549 cells (NCI/No. 0507282) are detached from culture dishes with a cell dissociation buffer (Invitrogen, 13151-014), and collected in growing medium (GM: RPMI1640 (Invitrogen 21875)/10% FCS, 1% Penicilin/streptomycin). Cells are counted washed and resuspended in assay buffer (AB; HBSS, 20 mM HEPES, 0.2% BSA; 2 mM IBMX). 4′000 cells in 5 μl of AB are seeded per well of a small volume 384 well plate (black with flat bottom, Greiner 784076).
Stock solutions of test compounds are made at a concentration of 10 mM in DMSO, and serially diluted in DMSO to concentrations required for inhibition dose response curves (tested concentration range 30 μM-0.4 nM; 30 μM-0.015 nM or 1 uM-0.01 nM).
PGE2 (Cayman 14010, stock solution: 6 μM in DMSO) is used as agonist at 6 nM final concentration, corresponding to EC80.
(§12) Two point five microliters of diluted compounds are transferred into the assay plate. Plate is pre-incubated 45 minutes at room temperature. Subsequently, 2.5 microliters of PGE2 (final conc. 6 nM) are transferred into the assay plate. Plate is incubated 30 minutes at room temperature. Five μl of each donor (anti-cAMP cryptate) and acceptor (cAMP-d2) are added and the plate is incubated another hour at room temperature in the dark and then read using a BMG LABTECH PHERAstar reader (Excitation:337 nm, Emission:620 and 665 nm).
(§13) The obtained Delta F(fluorescence) values (665 nm/620 nM) are converted into % cAMP values using the measurements of the cAMP calibrator provided in the kit. For each compound concentration the percentage of cAMP compared to DMSO control value as average±STDEV (each concentration is measured in duplicate) is calculated.
as §7

[3] = molecular target: T3, PTGER4 (EP4) (Homo sapiens, UniProt P35408); experiment: hEP4 b-arrestin assay (PathHunter HEK 293 PTGER4 b-arrestin cells); details: antagonistic activity, beta-arrestin assay; read-out: hEP4 b-arr IC50
T3 construct: host or cells: HEK 293 (PathHunter PTGER4 b-arrestin cell line)
T3 sequence (P35408 whole entry): as above
Protocol: as §1, §2
as §3, with “PTGER4” for “PTGER2”, “93-030-4C1)” for “93-021-4C1)”
as §4
PGE2 (Cayman 14010, stock solution: 100 uM in DMSO) is used as agonist at 20 nM final concentration, corresponding to EC80.
Five microliters of diluted compounds are transferred into the assay plate. Plate is pre-incubated 15 minutes at 37° C. Then five microliters of PGE2 (final conc. 20 nM) are transferred into the assay plate. Plate is incubated 120 minutes at 37° C.
as §5, §6, §7

[4] = molecular target: T4, EP2 receptor (Homo sapiens, UniProt P43116); experiment: hEP2 cAMP assay (SF295 glioblastoma cells, HTRF cAMP, PGE2 stimulation); details: antagonistic activity
T4 construct: SF295 glioblastoma cells express high endogenous EP2 and no EP4; host or cells: SF295 glioblastoma cells
T4 sequence (P43116 whole entry): as the sequence (P43116 whole entry) above
Protocol: as §8, §9, §10
as §11, with “SF295” for “BT549”, “0503170)” for “0507282)”, “RPM1640” for “RPMI1640”
Stock solutions of test compounds are made at a concentration of 10 mM in DMSO, and serially diluted in DMSO to concentrations required for inhibition dose response curves (tested concentration range 30 μM-0.4 nM; 30 μM-0.015 nM or 1 μM-0.01 nM).
PGE2 (Cayman 14010, stock solution: 75 μM in DMSO) is used as agonist at 75 nM final concentration, corresponding to EC80.
as §12, with “conc. 75” for “conc. 6”, “reader (Excitation: 337” for “reader (Excitation:337”, “nm, Emission: 620” for “nm, Emission:620”
as §13, with “F (fluorescence)” for “F(fluorescence)”
as §7

Compound	IC50 [1] [nM]	IC50 [2] [nM]	IC50 [3] [nM]	IC50 [4] [nM]
CCOc1cc(-c2cc(NCCc3c(C#N)sc4c(C)cc(F)cc34)ncn2)sc1C(=O)O [Example 26, 5-{6-[2-(2-Cyano-5-fluoro-7-methyl-benzo[b]thiophen-3-yl)-ethylamino]-pyrimidin-4-yl}-3-ethoxy-thiophene-2-carboxylic acid]	–	2	–	1
CSc1cc(-c2cc(NCCc3c(C)oc4ccccc34)ncn2)cc(F)c1C(=O)O [Example 49, 2-Fluoro-4-{6-[2-(2-methyl-benzofuran-3-yl)-ethylamino]-pyrimidin-4-yl}-6-methylsulfanyl-benzoic acid]	2	–	3620	1
CSc1cc(-c2cc(NCCc3c(C)oc4ccccc34)ncn2)cc(Cl)c1C(=O)O [Example 51, 2-Chloro-4-{6-[2-(2-methyl-benzofuran-3-yl)-ethylamino]-pyrimidin-4-yl}-6-methylsulfanyl-benzoic acid]	10	–	3490	1
COc1cc(-c2cc(NCCc3c(C)sc4c(C)ccc(F)c34)ncn2)cc(C)c1C(=O)O [Example 74, 4-{6-[2-(4-Fluoro-2,7-dimethyl-benzo[b]thiophen-3-yl)-ethylamino]-pyrimidin-4-yl}-2-methoxy-6-methyl-benzoic acid]	–	644	–	273
Cc1sc2c(C)cccc2c1CCNc1cc(-c2ccc3oc(C(=O)O)cc3c2)ncn1 [Example 78, 5-{6-[2-(2,7-Dimethyl-benzo[b]thiophen-3-yl)-ethylamino]-pyrimidin-4-yl}-benzofuran-2-carboxylic acid]	–	87	–	7
CCOc1cc(-c2cc(NCCc3c(C)sc4c(C)cc(F)cc34)ncn2)ccc1NCC(=O)O [Example 128, (2-Ethoxy-4-{6-[2-(5-fluoro-2,7-dimethyl-benzo[b]thiophen-3-yl)-ethylamino]-pyrimidin-4-yl}-phenylamino)-acetic acid]	–	82	–	37

Continued, values first:

IC50 [1] [nM]	IC50 [2] [nM]	IC50 [3] [nM]	IC50 [4] [nM]	Compound
59	22	142	–	COc1cc(Cl)cc2c(CCNc3cc(-c4cc(C)c(C(=O)O)s4)ncn3)c(C)oc12 [Example 1, 5-{6-[2-(5-Chloro-7-methoxy-2-methyl-benzofuran-3-yl)-ethylamino]-pyrimidin-4-yl}-3-methyl-thiophene-2-carboxylic acid]
99	–	3090	71	Cc1sc2c(Cl)ccc(Cl)c2c1CCNc1cc(-c2ccc(C(=O)O)c(O)c2)ncn1 [Example 11, 4-{6-[2-(4,7-Dichloro-2-methyl-benzo[b]thiophen-3-yl)-ethylamino]-pyrimidin-4-yl}-2-hydroxy-benzoic acid]
–	42	–	13	Cc1sc2c(C)cc(F)cc2c1CCNc1cc(-c2cc(OCCO)c(C(=O)O)s2)ncn1 [Example 41, 5-{6-[2-(5-Fluoro-2,7-dimethyl-benzo[b]thiophen-3-yl)-ethylamino]-pyrimidin-4-yl}-3-(2-hydroxy-ethoxy)-thiophene-2-carboxylic acid]
5	–	3380	2	CSc1cc(-c2cc(NCCc3c(C)sc4ccccc34)ncn2)cc(F)c1C(=O)O [Example 48, 2-Fluoro-4-{6-[2-(2-methyl-benzo[b]thiophen-3-yl)-ethylamino]-pyrimidin-4-yl}-6-methylsulfanyl-benzoic acid]
5	–	3500	4	CCOc1cc(-c2cc(NCCc3c(C)oc4ccccc34)ncn2)ccc1C(=O)O [Example 73, 2-Ethoxy-4-{6-[2-(2-methyl-benzofuran-3-yl)-ethylamino]-pyrimidin-4-yl}-benzoic acid]
–	426	–	359	CCOc1cc(-c2cc(NCCc3csc4ccccc34)ncn2)ccc1OCC(=O)O [Example 125, {4-[6-(2-Benzo[b]thiophen-3-yl-ethylamino)-pyrimidin-4-yl]-2-ethoxy-phenoxy}-acetic acid]
